Experimental data as given in the CheMixHub ionic liquid set.
± gives the uncertainty stated by the source.

Assay: xn = mol fraction of the nth substance listed
Settings: for viscosity: 100 kPa; for electrical conductivity: 101 kPa

CCCCCCCCCCCCOS(=O)(=O)[O-].[Na+] + O
viscosity (298.15 K, x1 = 0.0002702): 0.867 ± 0.027 mPa·s | electrical conductivity (298.15 K, frequency 0.001 MHz, x1 = 1.029e-05): 0.00434 ± 0.00043 S/m | electrical conductivity (298.15 K, frequency 0.001 MHz, x1 = 2.57e-05): 0.0104 ± 0.001 S/m | electrical conductivity (298.15 K, frequency 0.001 MHz, x1 = 3.699e-05): 0.0155 ± 0.0016 S/m | electrical conductivity (298.15 K, frequency 0.001 MHz, x1 = 5.034e-05): 0.0213 ± 0.0021 S/m | electrical conductivity (298.15 K, frequency 0.001 MHz, x1 = 6.37e-05): 0.0264 ± 0.0026 S/m | electrical conductivity (298.15 K, frequency 0.001 MHz, x1 = 7.295e-05): 0.0301 ± 0.003 S/m | electrical conductivity (298.15 K, frequency 0.001 MHz, x1 = 8.321e-05): 0.0349 ± 0.0035 S/m | electrical conductivity (298.15 K, frequency 0.001 MHz, x1 = 9.348e-05): 0.0392 ± 0.0039 S/m | electrical conductivity (298.15 K, frequency 0.001 MHz, x1 = 0.0001038): 0.0422 ± 0.0042 S/m | electrical conductivity (298.15 K, frequency 0.001 MHz, x1 = 0.000113): 0.0461 ± 0.0046 S/m | electrical conductivity (298.15 K, frequency 0.001 MHz, x1 = 0.0001212): 0.051 ± 0.0051 S/m | electrical conductivity (298.15 K, frequency 0.001 MHz, x1 = 0.0001315): 0.054 ± 0.0054 S/m | electrical conductivity (298.15 K, frequency 0.001 MHz, x1 = 0.0001418): 0.0567 ± 0.0057 S/m | electrical conductivity (298.15 K, frequency 0.001 MHz, x1 = 0.00015): 0.0607 ± 0.0061 S/m | electrical conductivity (298.15 K, frequency 0.001 MHz, x1 = 0.0001582): 0.0631 ± 0.0063 S/m | electrical conductivity (298.15 K, frequency 0.001 MHz, x1 = 0.0001665): 0.0649 ± 0.0065 S/m | electrical conductivity (298.15 K, frequency 0.001 MHz, x1 = 0.000183): 0.0673 ± 0.0067 S/m | electrical conductivity (298.15 K, frequency 0.001 MHz, x1 = 0.0001944): 0.0683 ± 0.0068 S/m | electrical conductivity (298.15 K, frequency 0.001 MHz, x1 = 0.0002036): 0.0701 ± 0.007 S/m | electrical conductivity (298.15 K, frequency 0.001 MHz, x1 = 0.000214): 0.0713 ± 0.0071 S/m | electrical conductivity (298.15 K, frequency 0.001 MHz, x1 = 0.0002222): 0.0737 ± 0.0074 S/m | electrical conductivity (298.15 K, frequency 0.001 MHz, x1 = 0.0002315): 0.075 ± 0.0075 S/m | electrical conductivity (298.15 K, frequency 0.001 MHz, x1 = 0.0002408): 0.0771 ± 0.0077 S/m | electrical conductivity (298.15 K, frequency 0.001 MHz, x1 = 0.0002521): 0.0792 ± 0.0079 S/m | electrical conductivity (298.15 K, frequency 0.001 MHz, x1 = 0.0002625): 0.0801 ± 0.008 S/m | electrical conductivity (298.15 K, frequency 0.001 MHz, x1 = 0.0002738): 0.0823 ± 0.0082 S/m | electrical conductivity (298.15 K, frequency 0.001 MHz, x1 = 0.0002862): 0.0841 ± 0.0084 S/m | electrical conductivity (298.15 K, x1 = 6.168e-05): 0.02352 ± 1e-05 S/m | electrical conductivity (298.15 K, x1 = 6.588e-05): 0.02512 ± 1e-05 S/m | electrical conductivity (298.15 K, x1 = 7.696e-05): 0.02928 ± 1e-05 S/m | electrical conductivity (298.15 K, x1 = 8.42e-05): 0.03184 ± 2e-05 S/m | electrical conductivity (298.15 K, x1 = 9.222e-05): 0.03505 ± 2e-05 S/m | electrical conductivity (298.15 K, x1 = 9.755e-05): 0.03686 ± 2e-05 S/m | electrical conductivity (298.15 K, x1 = 0.0001029): 0.03889 ± 2e-05 S/m | viscosity (303.15 K, x1 = 1.802e-05): 0.764 ± 0.026 mPa·s | viscosity (303.15 K, x1 = 3.604e-05): 0.766 ± 0.026 mPa·s | viscosity (303.15 K, x1 = 5.406e-05): 0.767 ± 0.026 mPa·s | viscosity (303.15 K, x1 = 7.207e-05): 0.768 ± 0.026 mPa·s | viscosity (303.15 K, x1 = 9.009e-05): 0.769 ± 0.026 mPa·s | viscosity (303.15 K, x1 = 0.0001081): 0.77 ± 0.026 mPa·s | viscosity (303.15 K, x1 = 0.0001261): 0.772 ± 0.026 mPa·s | viscosity (303.15 K, x1 = 0.0001441): 0.773 ± 0.026 mPa·s | viscosity (303.15 K, x1 = 0.0001622): 0.774 ± 0.026 mPa·s | viscosity (303.15 K, x1 = 0.0001802): 0.775 ± 0.026 mPa·s | viscosity (303.15 K, x1 = 0.0001982): 0.776 ± 0.026 mPa·s | viscosity (303.15 K, x1 = 0.0002162): 0.776 ± 0.026 mPa·s | viscosity (303.15 K, x1 = 0.0002342): 0.777 ± 0.026 mPa·s | viscosity (303.15 K, x1 = 0.0002522): 0.778 ± 0.026 mPa·s | viscosity (303.15 K, x1 = 0.0002702): 0.779 ± 0.027 mPa·s | viscosity (308.15 K, x1 = 1.802e-05): 0.69 ± 0.026 mPa·s | viscosity (308.15 K, x1 = 3.604e-05): 0.691 ± 0.026 mPa·s | viscosity (308.15 K, x1 = 5.406e-05): 0.691 ± 0.026 mPa·s | viscosity (308.15 K, x1 = 7.207e-05): 0.692 ± 0.026 mPa·s | viscosity (308.15 K, x1 = 9.009e-05): 0.694 ± 0.026 mPa·s | viscosity (308.15 K, x1 = 0.0001081): 0.695 ± 0.026 mPa·s | viscosity (308.15 K, x1 = 0.0001261): 0.696 ± 0.026 mPa·s | viscosity (308.15 K, x1 = 0.0001441): 0.698 ± 0.026 mPa·s | viscosity (308.15 K, x1 = 0.0001622): 0.7 ± 0.026 mPa·s | viscosity (308.15 K, x1 = 0.0001802): 0.701 ± 0.026 mPa·s | viscosity (308.15 K, x1 = 0.0001982): 0.702 ± 0.026 mPa·s | viscosity (308.15 K, x1 = 0.0002162): 0.702 ± 0.026 mPa·s | viscosity (308.15 K, x1 = 0.0002342): 0.704 ± 0.026 mPa·s | viscosity (308.15 K, x1 = 0.0002522): 0.704 ± 0.026 mPa·s | viscosity (308.15 K, x1 = 0.0002702): 0.705 ± 0.026 mPa·s | viscosity (313.15 K, x1 = 1.802e-05): 0.599 ± 0.027 mPa·s | viscosity (313.15 K, x1 = 3.604e-05): 0.6 ± 0.026 mPa·s | viscosity (313.15 K, x1 = 5.406e-05): 0.601 ± 0.026 mPa·s | viscosity (313.15 K, x1 = 7.207e-05): 0.601 ± 0.026 mPa·s | viscosity (313.15 K, x1 = 9.009e-05): 0.602 ± 0.026 mPa·s | viscosity (313.15 K, x1 = 0.0001081): 0.603 ± 0.026 mPa·s | viscosity (313.15 K, x1 = 0.0001261): 0.604 ± 0.026 mPa·s | viscosity (313.15 K, x1 = 0.0001441): 0.605 ± 0.026 mPa·s | viscosity (313.15 K, x1 = 0.0001622): 0.605 ± 0.026 mPa·s | viscosity (313.15 K, x1 = 0.0001802): 0.606 ± 0.026 mPa·s | viscosity (313.15 K, x1 = 0.0001982): 0.607 ± 0.026 mPa·s | viscosity (313.15 K, x1 = 0.0002162): 0.608 ± 0.026 mPa·s | viscosity (313.15 K, x1 = 0.0002342): 0.609 ± 0.026 mPa·s | viscosity (313.15 K, x1 = 0.0002522): 0.609 ± 0.026 mPa·s | viscosity (313.15 K, x1 = 0.0002702): 0.61 ± 0.028 mPa·s | viscosity (318.15 K, x1 = 1.802e-05): 0.567 ± 0.026 mPa·s | viscosity (318.15 K, x1 = 3.604e-05): 0.568 ± 0.026 mPa·s | viscosity (318.15 K, x1 = 5.406e-05): 0.57 ± 0.026 mPa·s | viscosity (318.15 K, x1 = 7.207e-05): 0.57 ± 0.026 mPa·s | viscosity (318.15 K, x1 = 9.009e-05): 0.571 ± 0.026 mPa·s | viscosity (318.15 K, x1 = 0.0001081): 0.571 ± 0.026 mPa·s | viscosity (318.15 K, x1 = 0.0001261): 0.572 ± 0.026 mPa·s | viscosity (318.15 K, x1 = 0.0001441): 0.573 ± 0.026 mPa·s | viscosity (318.15 K, x1 = 0.0001622): 0.574 ± 0.026 mPa·s | viscosity (318.15 K, x1 = 0.0001802): 0.575 ± 0.026 mPa·s | viscosity (318.15 K, x1 = 0.0001982): 0.576 ± 0.026 mPa·s | viscosity (318.15 K, x1 = 0.0002162): 0.576 ± 0.026 mPa·s | viscosity (318.15 K, x1 = 0.0002342): 0.577 ± 0.026 mPa·s | viscosity (318.15 K, x1 = 0.0002522): 0.577 ± 0.026 mPa·s | viscosity (318.15 K, x1 = 0.0002702): 0.578 ± 0.026 mPa·s
